“Also recorded” adds a separate entry of the source. A value given as a limit tells only on which side of the number the result lay.

The test system of series [1] is human embryonic lung (HEL) fibroblasts. The series can be described thus: Minimum cytotoxic concentration, HEL cell morphology.
Another series has as its target carboxypeptidase Y (Saccharomyces cerevisiae, UniProt P00729). The series can be described thus: Carboxypeptidase Y-mediated cleavage monitored by 31P-NMR. The series is classed as in vitro ADME. The following applies: for time to complete conversion of the starting material: carboxypeptidase Y; for conversion of the starting material by carboxypeptidase Y: result in words.

In series [2] the test system is thymidine kinase-deficient (TK−) HSV-1 KOS strain. The series is classed as cell-based, herpes simplex virus type 1. The following applies: HEL cell cultures; for Antiviral Activity EC50 HSV-1 TK (KOS): TK-deficient, ACV-resistant strain.

Sequence of carboxypeptidase Y (P00729 112-532): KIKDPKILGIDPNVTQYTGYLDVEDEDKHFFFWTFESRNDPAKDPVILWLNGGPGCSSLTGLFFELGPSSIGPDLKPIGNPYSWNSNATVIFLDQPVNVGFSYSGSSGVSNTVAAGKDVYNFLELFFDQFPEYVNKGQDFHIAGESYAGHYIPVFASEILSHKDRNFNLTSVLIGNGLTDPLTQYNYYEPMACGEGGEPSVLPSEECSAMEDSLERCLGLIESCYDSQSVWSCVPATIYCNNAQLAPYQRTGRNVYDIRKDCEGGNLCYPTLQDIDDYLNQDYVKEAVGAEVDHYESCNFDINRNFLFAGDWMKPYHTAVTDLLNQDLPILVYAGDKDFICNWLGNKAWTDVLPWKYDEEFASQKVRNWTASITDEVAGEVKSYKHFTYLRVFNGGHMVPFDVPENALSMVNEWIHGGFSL

Turning to `C[C@H](NP(=O)(OCC(CO)CCn1cnc2c(Cl)nc(N)nc21)Oc1ccccc1)C(=O)OCc1ccccc1` (mixture of isomers) [Compound 60], in series [1] (Table 4 (HCMV/VZV assays)), the “Cytotoxicity MCC” value is on record as above 100 µM. For the same compound, at carboxypeptidase Y, the “time to complete conversion of the starting material” value (“time to complete conversion” below) was at most 0.5 h; the “conversion of the starting material by carboxypeptidase Y” value (“conversion … by carboxypeptidase Y” for short) is “completely converted and full”.
`CC(C)OC(=O)[C@H](C)NP(=O)(OCC(COP(=O)(N[C@@H](C)C(=O)OC(C)C)Oc1cccc2ccccc12)OCn1cnc2c(=O)[nH]c(N)nc21)Oc1cccc2ccccc12` (stereo partly drawn) [Compound 15, 2-amino-9-{[(1,3-dihydroxypropan-2-yl)oxy]methyl}-6,9-dihydro-1H-purin-6-one-[1-naphthyl(isopropoxy-L-alaninyl)] diphosphate]: in series [2], the “Antiviral Activity EC50 HSV-1 TK (KOS)” value is given as “marginal activity”. The “Cytotoxicity MCC” value in series [1] (Table 3 (HSV assays)) was at least 100 µM; in series [1] (Table 4 (HCMV/VZV assays)) it was above 100 µM.
Take `CC(C)OC(=O)[C@H](C)NP(=O)(OCC(CO)OCn1cnc2c(=O)[nH]c(N)nc21)Oc1cccc2ccccc12` (stereo partly drawn) [Compound 16, 2-amino-9-{[(1,3-dihydroxypropan-2-yl)oxy]methyl}-6,9-dihydro-1H-purin-6-one-[1-naphthyl(isopropoxy-L-alaninyl)]phosphate]: in series [2], the “Antiviral Activity EC50 HSV-1 TK (KOS)” value is listed as “marginal activity”. In addition, the “Cytotoxicity MCC” value in series [1] (Table 3 (HSV assays)) and in series [1] (Table 4 (HCMV/VZV assays)) was above 100 µM in each case. Besides, the “conversion … by carboxypeptidase Y” value on carboxypeptidase Y is “slow and incomplete conversion; also recorded: partial”.
As for `C[C@H](NP(=O)(OCC(COP(=O)(N[C@@H](C)C(=O)OCc1ccccc1)Oc1ccccc1)OCn1cnc2c(=O)[nH]c(N)nc21)Oc1ccccc1)C(=O)OCc1ccccc1` (stereo partly shown) [Compound 17], in series [2], the “Antiviral Activity EC50 HSV-1 TK (KOS)” value is listed as “considerable activity”. For the same compound, the “Cytotoxicity MCC” value in series [1] (Table 3 (HSV assays)) and in series [1] (Table 4 (HCMV/VZV assays)) was above 100 µM each time.
As to `C[C@H](NP(=O)(OCC(COP(=O)(N[C@@H](C)C(=O)OCc1ccccc1)Oc1cccc2ccccc12)OCn1cnc2c(=O)[nH]c(N)nc21)Oc1cccc2ccccc12)C(=O)OCc1ccccc1` (stereo partly shown) [Compound 18], the “fold difference in EC50 values between HSV-1 TK+ and TK− strains” value (“fold difference” for short) in series [2] is given as below 2.5 fold. The “Cytotoxicity MCC” value in series [1] (Table 4 (HCMV/VZV assays)) is reported as above 50 µM.
`CC(C)(NP(=O)(OCC(COP(=O)(NC(C)(C)C(=O)OCc1ccccc1)Oc1ccccc1)OCn1cnc2c(=O)[nH]c(N)nc21)Oc1ccccc1)C(=O)OCc1ccccc1` (stereo not shown) [Compound 19]: the “fold difference” value in series [2] is below 2.5 fold.
In the case of `CC(C)(NP(=O)(OCC(COP(=O)(NC(C)(C)C(=O)OCc1ccccc1)Oc1cccc2ccccc12)OCn1cnc2c(=O)[nH]c(N)nc21)Oc1cccc2ccccc12)C(=O)OCc1ccccc1` (stereo not shown) [Compound 21], the “Antiviral Activity EC50 HSV-1 TK (KOS)” value in series [2] is recorded as “considerable activity”. In addition, the “Cytotoxicity MCC” value in series [1] (Table 3 (HSV assays)) is listed as above 100 µM.
Regarding `CC(C)(NP(=O)(OCC(CO)OCn1cnc2c(=O)[nH]c(N)nc21)Oc1cccc2ccccc12)C(=O)OCc1ccccc1` (stereo not shown) [Compound 22], the “fold difference” value in series [2] is below 2.5 fold. In addition, the “Cytotoxicity MCC” value in series [1] (Table 3 (HSV assays)) is above 100 µM; in series [1] (Table 4 (HCMV/VZV assays)), above 50 µM.
`C[C@H](NP(=O)(OCC(CO)OCn1cnc2c(=O)[nH]c(N)nc21)Oc1cccc2ccccc12)C(=O)OCc1ccccc1` (stereo partly shown) [Compound 28]: in series [2], the “Antiviral Activity EC50 HSV-1 TK (KOS)” value was “considerable activity”. Moreover, the “Cytotoxicity MCC” value in series [1] (Table 3 (HSV assays)) and in series [1] (Table 4 (HCMV/VZV assays)) was above 100 µM each time.
For the compound `CC(C)(NP(=O)(OCC(CO)CCn1cnc2c(=O)[nH]c(N)nc21)Oc1ccccc1)C(=O)OCc1ccccc1` (stereo not shown) [Compound 39], the “Cytotoxicity MCC” value in series [1] (Table 3 (HSV assays)) is recorded as above 100 µM; in series [1] (Table 4 (HCMV/VZV assays)) it was above 50 µM.
In the same order, the values of `CC(C)(NP(=O)(OCC(CO)CCn1cnc2c(=O)[nH]c(N)nc21)Oc1cccc2ccccc12)C(=O)OCc1ccccc1` (stereo not shown) [Compound 41] are above 100 µM and above 50 µM.
Regarding `C[C@H](NP(=O)(OCC(CO)CCn1cnc2c(=O)[nH]c(N)nc21)Oc1cccc2ccccc12)C(=O)OCc1ccccc1` (stereo partly shown) [Compound 45], the “Cytotoxicity MCC” value in series [1] (Table 3 (HSV assays)) is listed as above 100 µM; in series [1] (Table 4 (HCMV/VZV assays)), above 50 µM. On carboxypeptidase Y, the “conversion … by carboxypeptidase Y” value was “slow and incomplete conversion; also recorded: partial”.
Regarding `COc1nc(N)nc2c1ncn2CCC(COP(=O)(N[C@@H](C)C(=O)OCc1ccccc1)Oc1ccccc1)COP(=O)(N[C@@H](C)C(=O)OCc1ccccc1)Oc1ccccc1` (stereo partly shown) [Compound 61], the “Cytotoxicity MCC” value in series [1] (Table 4 (HCMV/VZV assays)) is reported as above 50 µM.
As to `COc1nc(N)nc2c1ncn2CCC(COP(=O)(N[C@@H](C)C(=O)OCC(C)(C)C)Oc1cccc2ccccc12)COP(=O)(N[C@@H](C)C(=O)OCC(C)(C)C)Oc1cccc2ccccc12` (stereo partly shown) [Compound 62], the “Cytotoxicity MCC” value was at least 100 µM in series [1] (Table 3 (HSV assays)) and at least 20 µM in series [1] (Table 4 (HCMV/VZV assays)).
On to `CCCOC(=O)[C@H](C)NP(=O)(OCC(CCn1cnc2c(OC)nc(N)nc21)COP(=O)(N[C@@H](C)C(=O)OCCC)Oc1cccc2ccccc12)Oc1cccc2ccccc12` (stereo partly shown) [Compound 63], for which the “Cytotoxicity MCC” value in series [1] (Table 3 (HSV assays)) is at least 100 µM; in series [1] (Table 4 (HCMV/VZV assays)), at least 50 µM. Also, the “conversion … by carboxypeptidase Y” value on carboxypeptidase Y is listed as “fast conversion; also recorded: partial”.
`CCC(C)(C)COC(=O)[C@H](C)NP(=O)(OCC(CCn1cnc2c(OC)nc(N)nc21)COP(=O)(N[C@@H](C)C(=O)OCC(C)(C)CC)Oc1cccc2ccccc12)Oc1cccc2ccccc12` (stereo partly shown) [Compound 64]: the “Cytotoxicity MCC” value in series [1] (Table 3 (HSV assays)) is at least 100 µM.
On to `COc1nc(N)nc2c1ncn2CCC(CO)COP(=O)(N[C@@H](C)C(=O)OCc1ccccc1)Oc1cccc2ccccc12` (stereo partly shown) [Compound 67], for which the “Antiviral Activity EC50 HSV-1 TK (KOS)” value in series [2] is on record as “retention of some activity”. Further, the “Cytotoxicity MCC” value in series [1] (Table 4 (HCMV/VZV assays)) was above 50 µM.
Taken in the same sequence, the figures for `COc1nc(N)nc2c1ncn2CCC(CO)COP(=O)(N[C@@H](C)C(=O)OCC(C)(C)C)Oc1cccc2ccccc12` (stereo partly shown) [Compound 68] were “retention of some activity” and above 50 µM.
Regarding `CCCOC(=O)[C@H](C)NP(=O)(OCC(CO)CCn1cnc2c(OC)nc(N)nc21)Oc1cccc2ccccc12` (stereo partly shown) [Compound 69], in series [1] (Table 3 (HSV assays)), the “Cytotoxicity MCC” value was 100 µM. Besides, the “Cytotoxicity MCC” value in series [1] (Table 4 (HCMV/VZV assays)) is at least 50 µM. For the same compound, on carboxypeptidase Y, the “time to complete conversion” value was at most 2 h; the “conversion … by carboxypeptidase Y” value was “complete conversion and full”.
As for `COC(=O)[C@H](C)NP(=O)(OCC(CO)CCn1cnc2c(OC)nc(N)nc21)Oc1cccc2ccccc12` (stereo partly shown) [Compound 70], the “Cytotoxicity MCC” value in series [1] (Table 3 (HSV assays)) was at least 100 µM; in series [1] (Table 4 (HCMV/VZV assays)), at least 50 µM.
In the case of `CCC(C)(C)COC(=O)[C@H](C)NP(=O)(OCC(CO)CCn1cnc2c(OC)nc(N)nc21)Oc1cccc2ccccc12` (stereo partly shown) [Compound 71], the “Cytotoxicity MCC” value is listed as 100 µM in series [1] (Table 3 (HSV assays)) and at least 50 µM in series [1] (Table 4 (HCMV/VZV assays)).
With `COc1nc(N)nc2c1ncn2CCC(CO)COP(=O)(N[C@@H](C)C(=O)OC1CCCCC1)Oc1cccc2ccccc12` (stereo partly shown) [Compound 72], the “Antiviral Activity EC50 HSV-1 TK (KOS)” value in series [2] is “retention of some activity”. Besides, in series [1] (Table 3 (HSV assays)), the “Cytotoxicity MCC” value is reported as at least 100 µM.
As for `C[C@H](NP1(=O)OCC(OCn2cnc3c(Cl)nc(N)nc32)CO1)C(=O)OCc1ccccc1` (stereo partly shown) [Compound 75], on carboxypeptidase Y, the “time to complete conversion” value is on record as at most 1 h and the “conversion … by carboxypeptidase Y” value is “completely metabolised”.
Regarding `CC(=O)OCC(COP(=O)(N[C@@H](C)C(=O)OCc1ccccc1)Oc1ccccc1)OCn1cnc2c(Cl)nc(N)nc21` (stereo partly shown) [Compound 77], at carboxypeptidase Y, the “conversion … by carboxypeptidase Y” value was “quickly metabolised”.
